US20250049781A1, “PHARMACEUTICAL COMPOSITIONS COMPRISING RPL554 IN HFA-134A FOR ADMINISTRATION BY INHALATION” (VERONA PHARMA PLC, priority 2018, published 2025)
Several values for one entry are separate records, joined by “and”; a condition that tells them apart may be missing. Identical values can stand only once.

Experiments:
Format in all cases: physicochemical
[1] = RPL554 dissolved in HFA-134a/ethanol with or without oleic acid (UV/Visible); settings: 24 hours at ambient temperature
Procedure: Samples were prepared by adding 1.5 mg of RPL554 to plain 14 mL aluminium canisters, with ethanol, oleic acid and HFA-134a. Excipients were added to the canisters to maintain an ethanol/oleic acid ratio of a 50:1 (see Table 8). Corresponding canisters were also produced containing RPL554, ethanol and HFA-134a only. The canisters were crimped with 63 μL pMDI valves, with shortened dip tubes (FIG. 3), and filled to 11.6 g with HFA-134a through the valve. The length of the dip tubes was sufficient to extend into the liquid propellant/co-solvent phase only (i.e. after the API particles had settled). The samples were placed in an ultrasonic bath for 30 seconds.
All the canisters were left for 24 hours at ambient temperature to settle and to establish dissolution equilibrium. To determine the amount of API dissolved, each canister was fired five times, in an upright position (through a cannula fitted to the valve stem) into a 10.0 cm^3 volumetric flask. The flask was made up to volume with dehydrated ethanol and the solution was analysed using UV/Visible spectroscopy (Perkin Elmer, Model Lambda 35). The concentration of RPL554 was calculated, quantitatively, against a three point standard curve.

[2] = Sedimentation score of pMDI formulations containing HFA-134a, oleic acid and ethanol; parameters: key: 1 = fastest sedimentation (undesirable), 10 = slowest (acceptable)
Procedure: (§1) Samples were made by adding the required amounts of RPL554 (see Table 3) to 15 ml pressure rated clear glass vials. The propellant, HFA-134a, HFA-227ea or combinations of the two (see Table 4) was added through the valve and the samples were mixed in an ultrasonic bath for 30 seconds. The same target fill weight of 11.6 g (±0.5 g) was used for all samples. The appearance of the API particles in the propellants was assessed with regards to both the sedimentation rate and flocculation behaviour (see FIG. 1). The sedimentation rate of the formulations was visually assessed after suspension agitation by recording images of the glass vials using a high-speed camera. The suspension quality was determined by assigning a sedimentation score of from 1 to 10 based on the amount of active particles which had settled or floated in 30 seconds, with 1being the fastest to sediment/cream (i.e. undesirable) and 10 being the slowest to sediment/cream (i.e. acceptable).
In order to seek to improve the suspension characteristics the inclusion of additional excipients was investigated. In particular, formulations further comprising a surfactant (oleic acid, Ph. Eur./BP) and a co-solvent (ethanol, 100% USP-NF) were prepared.

[3] = Solubility of RPL554 in ethanol (USP/BP criteria)
Procedure: However, the observations of dissolution and recrystallisation with the lowest product strength (10 μg/actuation) prompted further investigations into the solubility of RPL554 in ethanol in the presence of oleic acid.
The original assessment was carried out using Analytical Reagent grade ethanol. […] Unexpectedly, RPL554 was therefore found to have some solubility in ethanol.

[4] = Sedimentation score of RPL554 suspensions in HFA-134a, HFA-227ea and mixtures (visual, glass vials); parameters: key to Sedimentation score: 1 = fastest sediment/cream (undesirable), 10 = slowest (acceptable)
Procedure: as §1

Effect of oleic acid on the solubility of RPL554 ([1]; HFA-134a/ethanol, ethanol/oleic acid ratio 50:1): no effect
Sedimentation score ([2]; 10 μg/actuation, ethanol 1% w/w, oleic acid 0.010% w/w): 6
Sedimentation score ([2]; 10 μg/actuation, ethanol 1% w/w, oleic acid 0.500% w/w): 1
Sedimentation score ([2]; 10 μg/actuation, ethanol 5% w/w, oleic acid 0.255% w/w): 6
Sedimentation score ([2]; 10 μg/actuation, ethanol 15% w/w, oleic acid 0.010% w/w): 6
Sedimentation score ([2]; 10 μg/actuation, ethanol 15% w/w, oleic acid 0.500% w/w): 6
Sedimentation score ([2]; 150 μg/actuation, ethanol 1% w/w, oleic acid 0.255% w/w): 2
Sedimentation score ([2]; 150 μg/actuation, ethanol 5% w/w, oleic acid 0.010% w/w): 4
Sedimentation score ([2]; 150 μg/actuation, ethanol 5% w/w, oleic acid 0.255% w/w (six replicate samples)): 5 (5×) and 4
Sedimentation score ([2]; 150 μg/actuation, ethanol 5% w/w, oleic acid 0.500% w/w): 4
Sedimentation score ([2]; 150 μg/actuation, ethanol 15% w/w, oleic acid 0.255% w/w): 8
Sedimentation score ([2]; 1000 μg/actuation, ethanol 1% w/w, oleic acid 0.010% w/w): 3
Sedimentation score ([2]; 1000 μg/actuation, ethanol 1% w/w, oleic acid 0.500% w/w): 2
Sedimentation score ([2]; 1000 μg/actuation, ethanol 5% w/w, oleic acid 0.255% w/w): 3
Sedimentation score ([2]; 1000 μg/actuation, ethanol 15% w/w, oleic acid 0.010% w/w): 4
Sedimentation score ([2]; 1000 μg/actuation, ethanol 15% w/w, oleic acid 0.500% w/w): 5
Solubility classification according to the USP/BP criteria ([3]; Analytical Reagent grade ethanol, previous (original) assessment): practically insoluble
Solubility classification according to the USP/BP criteria ([3]; dehydrated alcohol (100% USP-NF ethanol), reassessment): very slightly soluble
Sedimentation score ([4]; 10 μg/actuation, HFA-134a 0% w/w, HFA-227ea 100% w/w): 3
Sedimentation score ([4]; 10 μg/actuation, HFA-134a 25% w/w, HFA-227ea 75% w/w): 5
Sedimentation score ([4]; 10 μg/actuation, HFA-134a 50% w/w, HFA-227ea 50% w/w): 4
Sedimentation score ([4]; 10 μg/actuation, HFA-134a 75% w/w, HFA-227ea 25% w/w): 6
Sedimentation score ([4]; 10 μg/actuation, HFA-134a 100% w/w, HFA-227ea 0% w/w, scale 1-10, 10 slowest): 6
Sedimentation score ([4]; 50 μg/actuation, HFA-134a 0% w/w, HFA-227ea 100% w/w): 3
Sedimentation score ([4]; 50 μg/actuation, HFA-134a 25% w/w, HFA-227ea 75% w/w): 4
Sedimentation score ([4]; 50 μg/actuation, HFA-134a 50% w/w, HFA-227ea 50% w/w): 3
Sedimentation score ([4]; 50 μg/actuation, HFA-134a 75% w/w, HFA-227ea 25% w/w): 6
Sedimentation score ([4]; 50 μg/actuation, HFA-134a 100% w/w, HFA-227ea 0% w/w): 6
Sedimentation score ([4]; 150 μg/actuation, HFA-134a 0% w/w, HFA-227ea 100% w/w): 3
Sedimentation score ([4]; 150 μg/actuation, HFA-134a 25% w/w, HFA-227ea 75% w/w): 4
Sedimentation score ([4]; 150 μg/actuation, HFA-134a 50% w/w, HFA-227ea 50% w/w): 3
Sedimentation score ([4]; 150 μg/actuation, HFA-134a 75% w/w, HFA-227ea 25% w/w): 3
Sedimentation score ([4]; 150 μg/actuation, HFA-134a 100% w/w, HFA-227ea 0% w/w): 5
Sedimentation score ([4]; 500 μg/actuation, HFA-134a 0% w/w, HFA-227ea 100% w/w): 2
Sedimentation score ([4]; 500 μg/actuation, HFA-134a 25% w/w, HFA-227ea 75% w/w): 3
Sedimentation score ([4]; 500 μg/actuation, HFA-134a 50% w/w, HFA-227ea 50% w/w): 2
Sedimentation score ([4]; 500 μg/actuation, HFA-134a 75% w/w, HFA-227ea 25% w/w): 3
Sedimentation score ([4]; 500 μg/actuation, HFA-134a 100% w/w, HFA-227ea 0% w/w): 3
Sedimentation score ([4]; 1000 μg/actuation, HFA-134a 0% w/w, HFA-227ea 100% w/w): 2
Sedimentation score ([4]; 1000 μg/actuation, HFA-134a 25% w/w, HFA-227ea 75% w/w): 4
Sedimentation score ([4]; 1000 μg/actuation, HFA-134a 50% w/w, HFA-227ea 50% w/w): 3
Sedimentation score ([4]; 1000 μg/actuation, HFA-134a 75% w/w, HFA-227ea 25% w/w): 4
Sedimentation score ([4]; 1000 μg/actuation, HFA-134a 100% w/w, HFA-227ea 0% w/w): 4
SMILES: COc1cc2c(cc1OC)-c1c/c(=N\c3c(C)cc(C)cc3C)n(CCNC(N)=O)c(=O)n1CC2 [RPL554, 9,10-dimethoxy-2-(2,4,6-trimethylphenylimino)-3-(N-carbamoyl-2-aminoethyl)-3,4,6,7-tetrahydro-2H-pyrimido[6,1-a]isoquinolin-4-one]
Amount of dissolved RPL554 versus ethanol concentration ([1]; HFA-134a with 1-12% w/w ethanol): increased with increasing ethanol concentration
Suspension behaviour on and after shaking ([4]; formulation in HFA-134a): readily suspended on shaking, with rapid flocculation and gradual sedimentation observed after shaking was stopped
Suspension behaviour on and after shaking ([4]; formulation in HFA-227ea): creaming was observed after the cessation of shaking
Suspension behaviour on and after shaking ([4]; formulation in blend of HFA-134a/HFA-227ea (50/50)): creaming was observed after the cessation of shaking
